Source: the NIST ThermoML archive (doi:10.1021/je800197t)

Conditions: Liquid

CN1CCOCC1 [N-methylmorpholine]
Conditions | mass density [kg/m3] | viscosity [mPa·s]
293.15 K | 918.74 | 1.028
303.15 K | 909.54 | 0.959
313.15 K | 902.37 | 0.858
323.15 K | 893.32 | 0.754
333.15 K | 884.36 | 0.626
343.15 K | 876.52 | 0.498
